Experimental data: PubChem BioAssay AID2083 (Sanford-Burnham Center for Chemical Genomics, 2009)

Molecular target: Dual specificity protein phosphatase 1 (Homo sapiens) (UniProt P28562)
Assay: inhibitors of DUSP1 phosphatase activity – biochemical, DiFMUP, fluorescence, selectivity assay for VHR1 inhibitor project, SAR follow-up (AID 2083)
Details: recombinant MKP-1, DiFMUP fluorescence

Chain of Dual specificity protein phosphatase 1 (Homo sapiens) (P28562 whole entry, looked up): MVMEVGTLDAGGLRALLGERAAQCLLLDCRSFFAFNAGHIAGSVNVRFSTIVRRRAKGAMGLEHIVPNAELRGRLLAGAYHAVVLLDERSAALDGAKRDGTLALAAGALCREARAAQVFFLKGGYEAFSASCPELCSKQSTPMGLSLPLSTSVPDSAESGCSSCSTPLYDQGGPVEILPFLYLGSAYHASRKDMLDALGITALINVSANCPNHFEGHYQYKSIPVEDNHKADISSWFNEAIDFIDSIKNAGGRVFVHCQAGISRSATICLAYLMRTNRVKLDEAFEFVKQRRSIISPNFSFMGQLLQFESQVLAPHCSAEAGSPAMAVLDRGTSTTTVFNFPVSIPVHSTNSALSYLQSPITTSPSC

Row | Structure (SMILES) | IC50
1 | O=C1/C(=C/c2cn(-c3ccccc3)nc2-c2ccc(OCc3ccc(Cl)cc3)cc2)SC(=S)N1CCS(=O)(=O)O | 460 nM
2 | O=C1/C(=C/c2cn(-c3ccccc3)nc2-c2ccc(OCc3ccccc3)cc2)SC(=S)N1CCS(=O)(=O)O | 780 nM
3 | O=C1/C(=C/c2cn(-c3ccccc3)nc2-c2ccc(OCc3ccccc3Cl)cc2)SC(=S)N1CCS(=O)(=O)O | 470 nM
4 | O=C1/C(=C/c2cn(-c3ccccc3)nc2-c2ccc(OCc3ccccc3F)cc2)SC(=S)N1CCS(=O)(=O)O | 520 nM
5 | O=C1/C(=C/c2cn(-c3ccccc3)nc2-c2ccc(S(=O)(=O)N3CCCCC3)cc2)SC(=S)N1CCS(=O)(=O)O | 2800 nM
